According to patent US6103700A, “Fluoro labelled anthracyclinone and anthracycline derivatives” (Pharmacia & Upjohn S.p.A., priority 1996, dated 2000):

Legend:
[1] = molecular target: Aβ25-35 peptide (Homo sapiens, UniProt P05067); test: Antifibrillogenic activity, thioflavine T (ThT) assay with Aβ25-35 peptide; assay type: biochemical; conditions: compound 30 μM, Aβ25-35 peptide 100 μM, 50 μM phosphate buffer pH 5, 25° C., 24 hours; ThT 47 μM; ex 420 nm, em 490 nm; less fluorescence = less amyloid; read-out: ThT fluorescence (% of control)
Protocol: The compounds of the present invention are also endowed with antifibrillogenic activity. When Aβ peptides are incubated with the compounds, a reduction in the formation of amyloid fibrils is observed. The amount of amyloid that results from peptide aggregation can be evaluated using the thioflavine T (ThT) assay as reported in the literature by Naiki et al., Analytical Biochemistry 1989, vol. 177, p. 244 and by H. LeVine III, Protein Science 1993, vol.2, p. 404. Compounds are incubated at a concentration of 30 μM, in 50 μM phosphate buffer pH 5 at 25° C. during 24 hours, with 100 μM peptide. The incubated samples are then diluted with sodium citrate buffer pH 5 containing 47 μM ThT. Fluorescence was measured with excitation at 420 nm and emission at 490 nm in a Kontron fluorescence spectrophotometer and the values were averaged after subtracting the background fluorescence of ThT. The less the fluorescence the less the amount of amyloid formed during the incubation period.
The following data obtained with the Aβ25-35 peptide are reported as examples.

[2] = test system: Aβ1-40 fibrils; test: Binding to Aβ1-40 fibrils (filtration, HPLC quantification of bound compound); conditions: 3% dimethylsulfoxide in water, 15 minutes, room temperature, Hill equation
Protocol: The precipitated fibrils are centrifuged, washed with distilled water, centrifuged again and resuspended in distilled water at a concentration of […]. The fibril suspension is sonocated for one minute and freezed at -20° C. in aliquots until use. […] The resulting suspension is incubated at room temperature for 15 minutes. After incubation, the suspension is loaded onto a Millipore ultrafree MC filter (0.22 μm pore retention) and centrifuged for 5 minutes at 4° C. […] The amount of bound compound is quantified by HPLC. The aspecific binding of the compounds to the filter is evaluated by processing samples of the compounds, as previously described, in the absence of fibrils. The amount of compound bound to the filter is subtracted from the total binding value obtained in the presence of fibrils. Binding parameters were estimated by computerised non-linear regression analysis according to the Hill equation. Data are expressed as nanomoles of compound bound per mg of peptide monomer (Bmax)

[3] = molecular target: Aβ25-35 fibrils (Homo sapiens, UniProt P05067); test: Binding of anthracyclinones and anthracyclines to Aβ25-35 fibrils (fluorescent detection of bound compound); conditions: 10% dimethylsulfoxide in distilled water, 60 minutes, room temperature, rectangular hyperbola (binding isotherm), read-out: EC50 (affinity of the test compounds for the Aβ fibrils)
Protocol: Binding of anthracyclinones and anthracyclines to Aβ fibrils
Fibrils from Aβ25-35 peptide are suspended in a solution of 10% dimethylsulfoxide in distilled water containing the test compound at various concentrations and incubated at room temperature for 60 minutes. After incubation, the samples are centrifuged at 15000 g for 10 minutes at room temperature and the supernatant withdrawn. Fibril pellets are washed three times with 0.3 ml of 10% DMSO in distilled water, dissolved in ethanol and the bound compound is quantified by fluorescent detection. EC50 are then calculated using rectangular hyperbola (binding isotherm) equation and represents the affinity of the test compounds for the Aβ fibrils.

Compound	remaining activity at 30 µM [1] [%]	Bmax (nanomoles of compound bound per mg of peptide monomer) [2] [nmoles/mg Aβ1-40]	EC50 [3] [µM]
COc1cccc2c1C(=O)c1c(O)c3c(c(O)c1C2=O)C[C@@](O)(C(=O)CO)C[C@@H]3O[C@H]1C[C@H](NC(=O)C(F)(F)F)[C@H](I)[C@H](C)O1 [Compound A1, N-trifluoroacetyl-4'-iododoxorubicin]	20.6	–	–
COc1cccc2c1C(=O)c1c(O)c3c(c(O)c1C2=O)C[C@@](O)(C(=O)CN1CCN(c2cccc(C(F)(F)F)c2)CC1)C[C@@H]3O [Compound A4, 14-[4-(3-trifluoromethylphenyl)piperazin-1-yl]-daunomycinone]	22.3	–	–
COc1cccc2c1C(=O)c1c(O)c3c(c(O)c1C2=O)C[C@@](O)(C(=O)CN1CCN(C(=O)C(F)(F)F)CC1)C[C@@H]3O [Compound A2, 14-(4-trifluoroacetylpiperazin-1-yl)-daunomycinone]	22.2	–	–
CCN(CC(=O)[C@]1(O)Cc2c(O)c3c(c(O)c2[C@@H](O)C1)C(=O)c1c(OC)cccc1C3=O)Cc1cc(C(F)(F)F)cc(C(F)(F)F)c1 [Compound A5, 14-[N-ethyl-N-(3,5-bis-trifluoromethylphenyl)methyl]daunomycinone]	23.1	223.1	–
COc1cccc2c1C(=O)c1c(O)c3c(c(O)c1C2=O)C[C@@](O)(C(=O)CO)C[C@@H]3O[C@H]1C[C@H](N)[C@H](I)[C@H](C)O1 [IDOX, iododoxorubicin, reference compound]	41	122.2	52 ± 10.7
COc1cccc2c1C(=O)c1c(O)c3c(c(O)c1C2=O)C[C@@](O)(C(=O)CN1CC=CCC1)C[C@@H]3O[C@H]1C[C@H](NC(=O)C(F)(F)F)[C@H](I)[C@H](C)O1 [Compound A7, 14-(1,2,3,6-tetrahydropyridin-1-yl)-4'-deoxy-4'-iodo-3'-N-trifluoroacetyl daunorubicin]	33.2	–	–
COc1cccc2c1C(=O)c1c(O)c3c(c(O)c1C2=O)C[C@@](O)(C(=O)CN(Cc1ccccc1)CC(F)(F)F)C[C@@H]3O [Compound A6, 14-[N-benzyl-N-(2,2,2-trifluoroethyl)]amino-daunomycinone]	35	–	–
COc1cccc2c1C(=O)c1c(O)c3c(c(O)c1C2=O)C[C@@](O)(C(=O)CN1CCN(S(=O)(=O)C(F)(F)F)CC1)C[C@@H]3O [Compound A3, 14-(4-trifluoromethanesulphonylpiperazin-1-yl)-daunomycinone]	23	–	8.16 ± 1.32
